# Reference: patent publication US20100267561A1, “HERBICIDAL PYRIDAZINONE DERIVATIVES” (priority 2007, published 2010)
# How the values were obtained:
# Format in all cases: in vivo
# [1] = tested on: johnsongrass (Sorghum halepense); assay: Test B pre-/postemergence plant response
# How it was run: (§1)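 Preemergence and postemergence (plants 2-18 cm, 1- to 4-leaf stage) applications used test chemicals in a non-phytotoxic solvent with surfactant. Plants were held in a greenhouse 13 to 15 days, then rated visually against controls on a 0-100 scale (0 no effect, 100 complete control).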
# [2] = tested on: eastern black (E.B.) nightshade (Solanum ptycanthum); assay: Test B pre-/postemergence plant response; settings: Preemergence; for Nightshade, E. B. plant response rating: scale 0 to 100
# How it was run: as §1
# [3] = tested on: bermudagrass (Cynodon dactylon); assay: Test B pre-/postemergence plant response; settings: for Bermudagrass plant response rating: 8 g ai/ha
# How it was run: as §1
# [4] = tested on: Italian ryegrass (Lolium multiflorum); assay: Test B pre-/postemergence plant response
# How it was run: as §1
# [5] = tested on: velvetleaf (Abutilon theophrasti); assay: Test B pre-/postemergence plant response
# How it was run: as §1
# [6] = tested on: common (oilseed) sunflower (Helianthus annuus); assay: Test B pre-/postemergence plant response; settings: Preemergence; for Sunflower plant response rating: scale 0 to 100
# How it was run: as §1
# kochia (Kochia scoparia) = assay: Test B pre-/postemergence plant response; settings: for Kochia plant response rating: postemergence, 0-100 scale; for Plant response rating, Kochia: Postemergence
# How it was run: as §1
# soybean (Glycine max) = assay: Test B pre-/postemergence plant response
# How it was run: as §1
# [7] = tested on: yellow nutsedge (Cyperus esculentus); assay: Test B pre-/postemergence plant response
# How it was run: as §1
# [8] = tested on: wheat (Triticum aestivum); assay: Test B pre-/postemergence plant response
# How it was run: as §1
# [9] = tested on: giant foxtail (Setaria faberi); assay: Test A pre-/postemergence plant response
# How it was run: (§2)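 Seeds in loam soil/sand blend treated preemergence by directed soil spray, with simultaneous postemergence spray on 2–10 cm plants at one- to two-leaf stage; compounds in non-phytotoxic solvent with surfactant. Injury visually rated versus untreated controls after about 10 days in greenhouse, 0 (no effect) to 100 (complete control).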
# corn (Zea mays) = assay: Test A pre-/postemergence plant response
# How it was run: as §2
# [10] = 8 g ai/ha, postemergence, 0-100 scale
# [11] = 16 g ai/ha, postemergence, 0-100 scale
# [12] = Postemergence, 31 g ai/ha, scale 0 to 100
# [13] = Postemergence, 62 g ai/ha, scale 0 to 100, 0 no effect, 100 complete control
# [14] = Preemergence, 31 g ai/ha, scale 0 to 100 (0 no effect, 100 complete control)
# [15] = Preemergence, 62 g ai/ha, 0 to 100 scale, 0 no effect, 100 complete control
# [16] = Preemergence, 8 g ai/ha, scale 0 to 100
# [17] = Preemergence, 16 g ai/ha, scale 0 to 100
# [18] = 31 g ai/ha, scale 0 to 100 (0 no effect, 100 complete control)
# [19] = 62 g ai/ha, 0 to 100 scale, 0 no effect, 100 complete control
# [20] = Postemergence, 16 g ai/ha, scale 0 to 100
# [21] = Preemergence, scale 0 to 100 (0 no effect, 100 complete control)
# [22] = Preemergence, 16 g ai/ha, scale 0 to 100 (0 no effect, 100 complete control)
# [23] = 62 g ai/ha, scale 0 to 100, 0 no effect, 100 complete control
# [24] = Postemergence, 31 g ai/ha, 0 to 100 scale, 0 no effect, 100 complete control
# [25] = Postemergence, 125 g ai/ha, 0 to 100 scale, 0 no effect, 100 complete control
# [26] = Preemergence, 31 g ai/ha, 0 to 100 scale, 0 is no effect, 100 is complete control
# [27] = Preemergence, 125 g ai/ha, 0 to 100 scale (0 no effect, 100 complete control)
compound,measurement,setting,value
CCc1cc(-c2ccc(C(F)(F)F)cc2)nn1-c1c(O)c(OC)nn(C)c1=O [Compound 66],Johnsongrass plant response rating,[1]; [10],75
same,Johnsongrass plant response rating,[1]; [11],100
same,"Plant response rating, Johnsongrass",[1]; [12],100
same,"Plant response rating, Johnsongrass",[1]; [13],100
same,"Plant response rating, Johnsongrass",[1]; [14],98
same,"Plant response rating, Johnsongrass",[1]; [15],100
same,Johnsongrass plant response rating,[1]; [16],70
same,Johnsongrass plant response rating,[1]; [17],95
same,"Plant response rating, Nightshade, E. B.",[2]; [18],0
same,"Plant response rating, Nightshade, E. B.",[2]; [19],0
same,"Nightshade, E. B. plant response rating",[2]; 8 g ai/ha,0
same,"Nightshade, E. B. plant response rating",[2]; 16 g ai/ha,0
same,Bermudagrass plant response rating,"[3]; postemergence, 0-100 scale",20
same,"Plant response rating, Bermudagrass",[3]; [20],98
same,"Plant response rating, Bermudagrass",[3]; [12],100
same,"Plant response rating, Bermudagrass",[3]; [13],100
same,Bermudagrass plant response rating,[3]; [21],0
same,"Plant response rating, Bermudagrass",[3]; [22],85
same,"Plant response rating, Bermudagrass",[3]; [14],98
same,"Plant response rating, Bermudagrass",[3]; [15],100
same,"Ryegrass, Italian plant response rating",[4]; [10],60
same,"Ryegrass, Italian plant response rating",[4]; [11],100
same,"Plant response rating, Ryegrass, Italian",[4]; [12],100
same,"Plant response rating, Ryegrass, Italian",[4]; [13],100
same,"Plant response rating, Ryegrass, Italian",[4]; [14],100
same,"Plant response rating, Ryegrass, Italian",[4]; [15],100
same,"Ryegrass, Italian plant response rating",[4]; [16],100
same,"Ryegrass, Italian plant response rating",[4]; [17],100
same,Velvetleaf plant response rating,[5]; [10],0
same,Velvetleaf plant response rating,[5]; [11],0
same,"Plant response rating, Velvetleaf",[5]; [12],0
same,"Plant response rating, Velvetleaf",[5]; [13],0
same,"Plant response rating, Velvetleaf",[5]; [14],0
same,"Plant response rating, Velvetleaf",[5]; [15],0
same,Velvetleaf plant response rating,[5]; [16],0
same,Velvetleaf plant response rating,[5]; [17],0
same,"Plant response rating, Sunflower",[6]; [18],0
same,"Plant response rating, Sunflower",[6]; [19],0
same,Sunflower plant response rating,[6]; 8 g ai/ha,0
same,Sunflower plant response rating,[6]; 16 g ai/ha,0
same,Kochia plant response rating,kochia (Kochia scoparia); 8 g ai/ha,0
same,Kochia plant response rating,kochia (Kochia scoparia); 16 g ai/ha,0
same,"Plant response rating, Kochia","kochia (Kochia scoparia); 31 g ai/ha, scale 0 to 100",0
same,"Plant response rating, Kochia",kochia (Kochia scoparia); [23],0
same,Soybean plant response rating,soybean (Glycine max); [10],0
same,Soybean plant response rating,soybean (Glycine max); [11],0
same,"Plant response rating, Soybean",soybean (Glycine max); [12],0
same,"Plant response rating, Soybean",soybean (Glycine max); [13],0
same,"Plant response rating, Soybean",soybean (Glycine max); [14],0
same,"Plant response rating, Soybean",soybean (Glycine max); [15],0
same,Soybean plant response rating,soybean (Glycine max); [16],0
same,Soybean plant response rating,soybean (Glycine max); [17],0
same,"Nutsedge, Yellow plant response rating",[7]; [10],0
same,"Nutsedge, Yellow plant response rating",[7]; [11],0
same,"Plant response rating, Nutsedge, Yellow",[7]; [12],0
same,"Plant response rating, Nutsedge, Yellow",[7]; [13],0
same,"Plant response rating, Nutsedge, Yellow",[7]; [14],0
same,"Plant response rating, Nutsedge, Yellow",[7]; [15],100
same,"Nutsedge, Yellow plant response rating",[7]; [16],0
same,"Nutsedge, Yellow plant response rating",[7]; [17],0
same,Wheat plant response rating,[8]; [10],95
same,Wheat plant response rating,[8]; [11],100
same,"Plant response rating, Wheat",[8]; [12],100
same,"Plant response rating, Wheat",[8]; [13],100
same,"Plant response rating, Wheat",[8]; [14],95
same,"Plant response rating, Wheat",[8]; [15],95
same,Wheat plant response rating,[8]; [17],90
same,"Plant response rating, Foxtail, Giant",[9]; [24],100
same,"Plant response rating, Foxtail, Giant",[9]; [25],100
same,"Plant response rating, Foxtail, Giant",[9]; [26],90
same,"Plant response rating, Foxtail, Giant",[9]; [27],100
same,"Plant response rating, Corn",corn (Zea mays); [24],100
same,"Plant response rating, Corn",corn (Zea mays); [25],100
same,"Plant response rating, Corn",corn (Zea mays); [26],40
same,"Plant response rating, Corn",corn (Zea mays); [27],80
CCCc1cc(-c2ccc(C(F)(F)F)cc2)nn1-c1c(O)cnn(C)c1=O [Compound 72],Johnsongrass plant response rating,[1]; [10],70
same,Johnsongrass plant response rating,[1]; [11],75
same,"Plant response rating, Johnsongrass",[1]; [13],100
same,"Plant response rating, Johnsongrass",[1]; [14],95
same,"Plant response rating, Johnsongrass",[1]; [15],100
same,Johnsongrass plant response rating,[1]; [16],50
same,Johnsongrass plant response rating,[1]; [17],55
same,"Plant response rating, Nightshade, E. B.",[2]; [18],0
same,"Plant response rating, Nightshade, E. B.",[2]; [19],30
same,"Nightshade, E. B. plant response rating",[2]; 8 g ai/ha,0
same,"Nightshade, E. B. plant response rating",[2]; 16 g ai/ha,0
same,Bermudagrass plant response rating,"[3]; postemergence, 0-100 scale",0
same,"Plant response rating, Bermudagrass",[3]; [20],50
same,"Plant response rating, Bermudagrass",[3]; [12],60
same,"Plant response rating, Bermudagrass",[3]; [13],80
same,Bermudagrass plant response rating,[3]; [21],40
same,"Plant response rating, Bermudagrass",[3]; [22],100
same,"Plant response rating, Bermudagrass",[3]; [14],100
same,"Plant response rating, Bermudagrass",[3]; [15],100
same,"Ryegrass, Italian plant response rating",[4]; [10],80
same,"Ryegrass, Italian plant response rating",[4]; [11],100
same,"Plant response rating, Ryegrass, Italian",[4]; [12],100
same,"Plant response rating, Ryegrass, Italian",[4]; [13],100
same,"Plant response rating, Ryegrass, Italian",[4]; [14],100
same,"Plant response rating, Ryegrass, Italian",[4]; [15],100
same,"Ryegrass, Italian plant response rating",[4]; [16],75
same,"Ryegrass, Italian plant response rating",[4]; [17],90
same,Velvetleaf plant response rating,[5]; [10],0
same,Velvetleaf plant response rating,[5]; [11],0
same,"Plant response rating, Velvetleaf",[5]; [12],0
same,"Plant response rating, Velvetleaf",[5]; [13],0
same,"Plant response rating, Velvetleaf",[5]; [14],0
same,"Plant response rating, Velvetleaf",[5]; [15],0
same,Velvetleaf plant response rating,[5]; [16],0
same,Velvetleaf plant response rating,[5]; [17],0
same,"Plant response rating, Sunflower",[6]; [18],0
same,"Plant response rating, Sunflower",[6]; [19],0
same,Sunflower plant response rating,[6]; 8 g ai/ha,0
same,Sunflower plant response rating,[6]; 16 g ai/ha,0
same,Kochia plant response rating,kochia (Kochia scoparia); 8 g ai/ha,0
same,Kochia plant response rating,kochia (Kochia scoparia); 16 g ai/ha,0
same,"Plant response rating, Kochia","kochia (Kochia scoparia); 31 g ai/ha, scale 0 to 100",0
same,"Plant response rating, Kochia",kochia (Kochia scoparia); [23],0
same,Soybean plant response rating,soybean (Glycine max); [10],0
same,Soybean plant response rating,soybean (Glycine max); [11],0
same,"Plant response rating, Soybean",soybean (Glycine max); [12],0
same,"Plant response rating, Soybean",soybean (Glycine max); [13],0
same,"Plant response rating, Soybean",soybean (Glycine max); [14],0
same,"Plant response rating, Soybean",soybean (Glycine max); [15],0
same,Soybean plant response rating,soybean (Glycine max); [16],0
same,Soybean plant response rating,soybean (Glycine max); [17],0
same,"Nutsedge, Yellow plant response rating",[7]; [10],0
same,"Nutsedge, Yellow plant response rating",[7]; [11],0
same,"Plant response rating, Nutsedge, Yellow",[7]; [12],0
same,"Plant response rating, Nutsedge, Yellow",[7]; [13],0
same,"Plant response rating, Nutsedge, Yellow",[7]; [14],0
same,"Plant response rating, Nutsedge, Yellow",[7]; [15],0
same,"Nutsedge, Yellow plant response rating",[7]; [16],0
same,"Nutsedge, Yellow plant response rating",[7]; [17],0
same,Wheat plant response rating,[8]; [10],85
same,Wheat plant response rating,[8]; [11],85
same,"Plant response rating, Wheat",[8]; [12],85
same,"Plant response rating, Wheat",[8]; [13],95
same,"Plant response rating, Wheat",[8]; [14],80
same,"Plant response rating, Wheat",[8]; [15],90
same,Wheat plant response rating,[8]; [17],35
same,"Plant response rating, Foxtail, Giant",[9]; [24],90
same,"Plant response rating, Foxtail, Giant",[9]; [25],100
same,"Plant response rating, Foxtail, Giant",[9]; [26],70
same,"Plant response rating, Foxtail, Giant",[9]; [27],90
same,"Plant response rating, Corn",corn (Zea mays); [24],80
same,"Plant response rating, Corn",corn (Zea mays); [25],100
same,"Plant response rating, Corn",corn (Zea mays); [26],20
same,"Plant response rating, Corn",corn (Zea mays); [27],50
